From the NIST ThermoML archive (doi:10.1021/je800316b)

Conditions: Liquid

CCCCCCCCCCn1cc[n+](C)c1.O=S(=O)([N-]S(=O)(=O)C(F)(F)F)C(F)(F)F
mass density [kg/m3]
Conditions	100 kPa	2500 kPa	5000 kPa	7500 kPa	10000 kPa	15000 kPa	20000 kPa	25000 kPa	30000 kPa	35000 kPa
293.15 K	1282.4	1285.6	1287.4	1289.3	1291.1	1294.6	1298.1	1301.4	1304.7	1308
298.15 K	1278	1280.8	1282.7	1284.6	1286.4	1290	1293.5	1297	1300.3	1303.6
303.15 K	1273.6	1276.4	1278.3	1280.3	1282.1	1285.8	1289.4	1292.9	1296.3	1299.6
313.15 K	1265.3	1267.3	1269.3	1271.3	1273.2	1277	1280.7	1284.2	1287.7	1291.1
333.15 K	1245.5	1247.7	1249.8	1251.9	1254	1258	1261.9	1265.7	1269.4	1273
353.15 K	1228.6	1230.9	1233.2	1235.5	1237.6	1242	1246.2	1250.2	1254.1	1257.9
373.15 K	1209.6	1212.4	1214.8	1217.3	1219.6	1224.2	1228.6	1232.9	1237	1241.1
393.15 K	1191.8	1195.8	1198.3	1200.9	1203.4	1208.2	1212.8	1217.3	1221.7	1225.9

CCn1cc[n+](CC)c1.O=S(=O)([N-]S(=O)(=O)C(F)(F)F)C(F)(F)F [1,3-diethylimidazolium bis[(trifluoromethyl)sulfonyl]imide]
mass density [kg/m3]
Conditions	100 kPa	2500 kPa	5000 kPa	7500 kPa	10000 kPa	15000 kPa	20000 kPa	25000 kPa	30000 kPa	35000 kPa
293.15 K	1469.2	1471.1	1473.1	1475	1476.9	1480.8	1484.2	1487.9	1491.5	1495.2
298.15 K	1463.2	1465.5	1467.6	1469.5	1471.4	1475.3	1479	1482.5	1486.1	1489.5
303.15 K	1457.7	1460.1	1462.1	1463.9	1466.1	1469.8	1473.6	1477.1	1480.9	1484.3
313.15 K	1447.3	1449.6	1451.6	1453.7	1455.8	1459.7	1463.5	1467.2	1470.9	1474.6
333.15 K	1425.7	1428.2	1430.4	1432.6	1434.8	1439.1	1443.2	1447.2	1450.9	1454.8
353.15 K	1404.5	1407.5	1409.9	1412.2	1414.5	1419	1423.4	1427.5	1431.6	1435.6
373.15 K	1384.1	1386.9	1389.5	1391.9	1394.4	1399.1	1403.7	1408.1	1412.4	1416.7
393.15 K	1364.2	1367.2	1369.9	1372.5	1375.1	1380.2	1384.9	1389.6	1394.3	1398.6

CCn1cc[n+](C)c1.COS(=O)(=O)[O-] [1-ethyl-3-methylimidazolium methylsulfate]
mass density [kg/m3]
Conditions	100 kPa	2500 kPa	5000 kPa	7500 kPa	10000 kPa	15000 kPa	20000 kPa	25000 kPa	30000 kPa	35000 kPa
293.15 K	1292.1	1293	1294	1295	1296	1298	1299.9	1301.8	1303.7	1305.6
298.15 K	1288	1289.1	1290.1	1291.1	1292.1	1294.1	1296.1	1298	1300	1301.9
303.15 K	1283.3	1284.3	1285.4	1286.4	1287.4	1289.5	1291.4	1293.4	1295.3	1297.3
313.15 K	1276.6	1277.8	1278.9	1279.9	1281	1283	1285.1	1287.1	1289.1	1291.1
333.15 K	1260.9	1262.3	1263.4	1264.5	1265.6	1267.8	1269.9	1272	1274	1276.1
353.15 K	1245.5	1247.5	1248.7	1249.9	1251.1	1253.4	1255.6	1257.8	1260	1262.2
373.15 K	1231.4	1232.8	1234	1235.2	1236.4	1238.8	1241.2	1243.5	1245.7	1248
393.15 K	1218.1	1219.2	1220.5	1221.8	1223.1	1225.5	1227.9	1230.3	1232.6	1234.9

CCOS(=O)(=O)[O-].CCn1cc[n+](C)c1 [1-ethyl-3-methylimidazolium ethyl sulfate]
mass density [kg/m3]
Conditions	100 kPa	2500 kPa	5000 kPa	7500 kPa	10000 kPa	15000 kPa	20000 kPa	25000 kPa	30000 kPa	35000 kPa
293.15 K	1246.9	1249	1250.2	1251.3	1252.3	1254.3	1256.5	1258.5	1260.5	1262.4
298.15 K	1244.3	1245.2	1246.3	1247.4	1248.4	1250.6	1252.7	1254.8	1256.6	1258.7
303.15 K	1240.8	1241.6	1242.7	1243.8	1244.9	1247	1249.1	1251.1	1253.2	1255.2
313.15 K	1233.1	1234	1235.1	1236.2	1237.3	1239.5	1241.6	1243.7	1245.8	1247.9
333.15 K	1218.3	1219.2	1220.4	1221.6	1222.7	1225	1227.2	1229.3	1231.5	1233.6
353.15 K	1204.2	1205.3	1206.6	1207.8	1209	1211.4	1213.8	1216.1	1218.4	1220.6
373.15 K	1190.1	1191.3	1192.6	1193.9	1195.2	1197.7	1200.2	1202.6	1204.9	1207.3
393.15 K	1176.6	1178	1179.3	1180.7	1182	1184.6	1187.2	1189.7	1192.2	1194.6
